Test results from patent US20050095240A1, “NaCT as a target for lifespan expansion and weight reduction” (Medical College of Georgia Research, priority 2002, published 2005).
Read-outs that look alike come from different tables or passages of the source.

How the values were obtained:
[1] = biological target: human NaCT (Homo sapiens, UniProt Q86YT5); assay: Uptake via human NaCT expressed in HRPE cells; type: cell-based; conditions: for [^14C]-Citrate Uptake (cDNA-specific) / [^14C]-Citrate Uptake, %: [14C]-citrate 20 μM, unlabeled compound 2.5 mM; for [^14C]-Citrate Uptake, %: none = 100
Sequence of human NaCT (Q86YT5 whole entry): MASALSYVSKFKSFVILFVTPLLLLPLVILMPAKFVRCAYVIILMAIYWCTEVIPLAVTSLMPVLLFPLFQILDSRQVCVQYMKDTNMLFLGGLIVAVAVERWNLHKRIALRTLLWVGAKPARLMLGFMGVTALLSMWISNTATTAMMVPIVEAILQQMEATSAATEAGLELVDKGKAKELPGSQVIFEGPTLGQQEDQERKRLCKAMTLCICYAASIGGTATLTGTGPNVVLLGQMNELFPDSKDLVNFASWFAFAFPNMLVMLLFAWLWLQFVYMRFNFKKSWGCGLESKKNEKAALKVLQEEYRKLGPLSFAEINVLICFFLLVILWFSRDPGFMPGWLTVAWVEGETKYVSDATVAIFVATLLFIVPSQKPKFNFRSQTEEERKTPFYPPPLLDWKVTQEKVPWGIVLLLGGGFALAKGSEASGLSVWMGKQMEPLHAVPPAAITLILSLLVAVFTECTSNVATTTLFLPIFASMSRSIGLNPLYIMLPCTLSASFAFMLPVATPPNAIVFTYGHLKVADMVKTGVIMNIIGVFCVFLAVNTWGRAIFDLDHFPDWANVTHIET

[2] = biological target: T1, mouse NaCT (Mus musculus, UniProt Q67BT3); assay: Transport via mouse NaCT expressed in HRPE cells; type: cell-based; conditions: for [^3H]-Succinate transport (NaCT-specific) / [^3H]-Succinate transport, %: [3H]-succinate 0.1 μM; for [^3H]-Succinate transport (NaCT-specific) / [^3H]-Succinate transport, % / [^14C]-Citrate transport (NaCT-specific) / [^14C]-Citrate transport, %: substrate analog 2 mM; for [^3H]-Succinate transport, % / [^14C]-Citrate transport, %: control = 100; for [^14C]-Citrate transport (NaCT-specific) / [^14C]-Citrate transport, %: [14C]-citrate 10 μM
T1 sequence (Q67BT3 1-572): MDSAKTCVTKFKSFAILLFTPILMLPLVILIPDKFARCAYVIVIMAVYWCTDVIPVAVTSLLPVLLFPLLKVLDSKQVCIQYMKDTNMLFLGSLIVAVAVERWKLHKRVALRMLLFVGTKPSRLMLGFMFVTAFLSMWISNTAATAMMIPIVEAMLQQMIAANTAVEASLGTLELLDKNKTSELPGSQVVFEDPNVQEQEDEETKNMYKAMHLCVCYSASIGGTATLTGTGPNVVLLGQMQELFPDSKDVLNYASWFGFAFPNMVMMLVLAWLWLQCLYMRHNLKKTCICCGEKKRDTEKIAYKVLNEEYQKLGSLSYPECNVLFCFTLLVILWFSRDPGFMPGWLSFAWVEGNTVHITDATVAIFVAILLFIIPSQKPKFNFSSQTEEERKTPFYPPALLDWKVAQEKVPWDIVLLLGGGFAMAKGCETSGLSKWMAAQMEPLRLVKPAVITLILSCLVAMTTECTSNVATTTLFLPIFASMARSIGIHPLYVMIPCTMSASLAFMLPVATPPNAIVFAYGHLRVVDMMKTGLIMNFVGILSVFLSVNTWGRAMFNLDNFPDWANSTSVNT

[3] = biological target: T2, ceNaCT (Caenorhabditis elegans, UniProt P32739, I91S/L182M); assay: Uptake via ceNaCT expressed in HRPE cells; conditions: for Competition with [^14C]citrate for ceNaCT-mediated uptake: competitor 2.5 mM, [14C]citrate 15 μM
T2 sequence (P32739 1-551 I91S/L182M): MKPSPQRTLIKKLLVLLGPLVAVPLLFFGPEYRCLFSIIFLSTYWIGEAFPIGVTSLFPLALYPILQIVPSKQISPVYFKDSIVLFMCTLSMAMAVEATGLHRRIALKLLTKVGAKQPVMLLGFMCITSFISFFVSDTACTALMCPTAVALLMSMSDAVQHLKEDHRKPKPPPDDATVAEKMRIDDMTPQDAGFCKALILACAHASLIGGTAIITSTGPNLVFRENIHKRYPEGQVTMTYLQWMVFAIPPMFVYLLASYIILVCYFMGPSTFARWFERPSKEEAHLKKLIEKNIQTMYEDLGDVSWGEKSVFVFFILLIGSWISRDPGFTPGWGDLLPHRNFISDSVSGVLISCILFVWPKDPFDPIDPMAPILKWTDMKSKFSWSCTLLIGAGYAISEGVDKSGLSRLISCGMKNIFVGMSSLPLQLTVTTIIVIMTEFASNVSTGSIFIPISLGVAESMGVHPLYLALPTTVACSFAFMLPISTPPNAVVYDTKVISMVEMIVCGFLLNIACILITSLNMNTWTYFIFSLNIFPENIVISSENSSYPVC

[4] = biological target: T3, rat NaCT (Rattus norvegicus, UniProt Q8CJ44); assay: Uptake via rat NaCT expressed in HRPE cells; type: cell-based; conditions: for [^14C]Citrate uptake (cDNA-specific) / [^14C]Citrate uptake, %: [14C]citrate 14 μM, unlabeled compound 2.5 mM; for [^14C]Citrate uptake, %: none = 100; for Uptake in rat NaCT cDNA-transfected cells vs vector alone: succinate 80 nM, pyruvate 135 μM, citrate 35 μM, Na+ gradient
T3 sequence (Q8CJ44 1-572): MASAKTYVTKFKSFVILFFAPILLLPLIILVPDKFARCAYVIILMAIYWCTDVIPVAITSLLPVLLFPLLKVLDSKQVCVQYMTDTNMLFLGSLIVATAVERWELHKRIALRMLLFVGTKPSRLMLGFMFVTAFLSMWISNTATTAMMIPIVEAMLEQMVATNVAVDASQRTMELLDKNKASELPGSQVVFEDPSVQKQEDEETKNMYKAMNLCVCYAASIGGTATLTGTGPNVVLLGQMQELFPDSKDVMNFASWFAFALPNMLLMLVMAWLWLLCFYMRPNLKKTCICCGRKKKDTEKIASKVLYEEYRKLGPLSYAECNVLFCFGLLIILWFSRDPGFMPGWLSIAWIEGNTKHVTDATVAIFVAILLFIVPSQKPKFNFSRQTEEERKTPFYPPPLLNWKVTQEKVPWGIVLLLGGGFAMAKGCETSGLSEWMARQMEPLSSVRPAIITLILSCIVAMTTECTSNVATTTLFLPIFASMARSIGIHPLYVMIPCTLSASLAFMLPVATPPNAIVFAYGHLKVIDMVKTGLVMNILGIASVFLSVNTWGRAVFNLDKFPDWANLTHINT

[5] = biological target: zebrafish NaCT (Danio rerio, UniProt A0A2R8QQN0, K78Q); assay: Citrate uptake via zebrafish NaCT expressed in HRPE cells; type: cell-based
Sequence of zebrafish NaCT (A0A2R8QQN0 2-582 K78Q): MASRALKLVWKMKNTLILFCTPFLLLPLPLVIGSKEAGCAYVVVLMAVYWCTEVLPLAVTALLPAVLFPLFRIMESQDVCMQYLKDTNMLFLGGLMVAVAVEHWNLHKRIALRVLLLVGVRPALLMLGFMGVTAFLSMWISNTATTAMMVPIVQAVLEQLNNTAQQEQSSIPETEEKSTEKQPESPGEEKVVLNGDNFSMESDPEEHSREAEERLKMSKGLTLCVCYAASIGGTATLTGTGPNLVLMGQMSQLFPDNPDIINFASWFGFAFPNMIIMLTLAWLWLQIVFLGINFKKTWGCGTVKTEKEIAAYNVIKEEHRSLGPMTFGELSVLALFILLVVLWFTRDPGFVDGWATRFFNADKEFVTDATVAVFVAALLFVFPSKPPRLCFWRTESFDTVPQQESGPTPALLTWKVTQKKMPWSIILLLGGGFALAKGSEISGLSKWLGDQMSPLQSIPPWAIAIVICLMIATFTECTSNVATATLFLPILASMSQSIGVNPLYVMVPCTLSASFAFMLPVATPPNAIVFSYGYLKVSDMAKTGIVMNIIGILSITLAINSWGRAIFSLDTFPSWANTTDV

[6] = biological target: drIndy (Drosophila melanogaster, UniProt Q9VVT2); conditions: for % Control of cDNA-specific [^3H]succinate uptake / cDNA-specific [^3H] succinate uptake: [3H]succinate 40 nM, inhibitor 2.5 mM; for cDNA-specific [^3H] succinate uptake: NaCl buffer pH 7.5; for Uptake in drIndy cDNA-transfected cells vs vector alone / Succinate uptake mediated by drIndy: succinate 40 nM
Sequence of drIndy (Q9VVT2 19-590): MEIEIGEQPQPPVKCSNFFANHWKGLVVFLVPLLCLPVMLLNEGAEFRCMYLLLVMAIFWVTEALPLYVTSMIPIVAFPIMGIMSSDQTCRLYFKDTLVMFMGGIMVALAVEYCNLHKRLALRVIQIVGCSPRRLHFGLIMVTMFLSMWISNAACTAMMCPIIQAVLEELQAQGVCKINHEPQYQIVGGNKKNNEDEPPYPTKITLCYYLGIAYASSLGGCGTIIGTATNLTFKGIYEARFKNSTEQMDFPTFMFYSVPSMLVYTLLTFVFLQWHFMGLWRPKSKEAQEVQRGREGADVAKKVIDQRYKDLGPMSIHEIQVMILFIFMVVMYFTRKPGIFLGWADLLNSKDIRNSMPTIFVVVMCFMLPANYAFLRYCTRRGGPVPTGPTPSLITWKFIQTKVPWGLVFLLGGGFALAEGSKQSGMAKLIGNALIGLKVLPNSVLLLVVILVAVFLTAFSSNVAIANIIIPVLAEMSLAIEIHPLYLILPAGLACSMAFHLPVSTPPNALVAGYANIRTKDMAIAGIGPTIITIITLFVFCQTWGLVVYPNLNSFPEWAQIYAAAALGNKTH

[7] = biological target: T3, rat NaCT; assay: Rat NaCT in X. laevis oocytes, voltage clamp and charge-to-substrate ratio; type: cell-based; conditions: for Charge-to-substrate ratio: 50 μM substrate, −50 mV, 10 min
[8] = presence of Na+, citrate 35 μM, pyruvate 135 μM

Structure (SMILES): O=C(O)CC(O)(CC(=O)O)C(=O)O [Citrate]
- IC50 [1]: 688 ± 150 µM
- Kt for citrate via human NaCT in the presence of Li+ ([1]; 10 mM Li+): 95 ± 15 µM
- [^14C]-Citrate Uptake (cDNA-specific) [1]: 7.7 ± 0.7 pmol/10^6 cells/min
- [^14C]-Citrate Uptake, % [1]: 16%
- Uptake in human NaCT cDNA-transfected cells vs vector alone ([1]; citrate 20 μM, NaCl): about 23 fold
- Affinity of human NaCT for citrate less than that of rat NaCT ([1]; identical assay conditions): about 30 fold
- Kt (Michaelis-Menten constant) for citrate uptake via human NaCT ([1]; wild type, absence of Li+): 604 ± 73 µM
- Maximal velocity (Vmax) [2]: 118±6 pmol/10^6 cells/min
- Michaelis-Menten constant (Kt) for transport via mouse NaCT [2]: 22 ± 2 µM
- [^3H]-Succinate transport (NaCT-specific) [2]: 0.004 ± 0.001 pmol/10^6 cells/min
- [^3H]-Succinate transport, % [2]: 3%
- [^14C]-Citrate transport (NaCT-specific) [2]: 0.7 ± 0.1 pmol/10^6 cells/min
- [^14C]-Citrate transport, % [2]: 2%
- Transport of citrate in cDNA-transfected cells ([2]; citrate 20 μM): 48.4±1.0 pmol/10^6 cells/min
- Transport in mouse NaCT cDNA-transfected cells vs vector alone ([2]; succinate 50 nM, citrate 20 μM): 20.2 fold
- Uptake in ceNaCT-expressing cells vs vector-transfected control cells ([3]; [14C]citrate 10 μM, Na+, pH 7.5): approximately 45 fold
- Uptake of [^14C]citrate in cells expressing ceNaCT ([3]; citrate 10 μM, Na+, pH 7.5): 61±5 pmol/10^6 Cells/min
- Competition with [^14C]citrate for ceNaCT-mediated uptake [3]: potent inhibitor
- Vmax for transport via ceNaCT ([3]; pH 7.5): 270±13 pmol/10^6 cells/min
- IC50 [4]: 28 ± 4 µM
- Ki [4]: 16 ± 2 µM
- Kt (Michaelis-Menten constant) for citrate uptake via rat NaCT [4]: 18 ± 4 µM
- [^14C]Citrate uptake (cDNA-specific) [4]: 1.5 ± 0.1 Pmol/10^6 cells/min
- [^14C]Citrate uptake, % [4]: 1%
- Uptake in rat NaCT cDNA-transfected cells vs vector alone [4]: approximately 90 fold
- IC50 [5]: 30 ± 4 µM
- Km ([5]; read-out: Michaelis constant for citrate uptake, hrpe cells, 30 min): 40 ± 4 µM
- % Control of cDNA-specific [^3H]succinate uptake [6]: 13%
- cDNA-specific [^3H] succinate uptake [6]: 18.6 ± 3.0 fmol/106 cells per min
- Uptake in drIndy cDNA-transfected cells vs vector alone [6, 8]: approximately 30 fold
- Charge-to-substrate ratio [7]: 1
- Currents in rat NaCT oocytes compared to mouse NaCT ([7]; 0.5 mM citrate): 3 fold
- Citrate-induced current ([7]; 0.5 mM citrate, three oocytes): 87±8 nA

Structure (SMILES): O=C(O)CCC(=O)O [Succinate, succinate]
- IC50 [1]: 1920 ± 480 µM
- [^14C]-Citrate Uptake (cDNA-specific) [1]: 32.1 ± 3.6 pmol/10^6 cells/min
- [^14C]-Citrate Uptake, % [1]: 67%
- Maximal velocity (Vmax) [2]: 80±5 pmol/10^6 cells/min
- Michaelis-Menten constant (Kt) for transport via mouse NaCT [2]: 33 ± 4 µM
- [^3H]-Succinate transport (NaCT-specific) [2]: 0.007 ± 0.003 pmol/10^6 cells/min
- [^3H]-Succinate transport, % [2]: 5%
- [^14C]-Citrate transport (NaCT-specific) [2]: 0.1 ± 0.1 pmol/10^6 cells/min
- [^14C]-Citrate transport, % [2]: 1%
- Transport of succinate in cDNA-transfected cells ([2]; succinate 50 nM): 42.7±4.6 fmol/10^6 cells/min
- Transport in mouse NaCT cDNA-transfected cells vs vector alone ([2]; succinate 50 nM, citrate 20 μM): 7.8 fold
- Competition with [^14C]citrate for ceNaCT-mediated uptake [3]: inhibited markedly
- Vmax for transport via ceNaCT ([3]; pH 7.5): 210±8 pmol/10^6 cells/min
- Km ([3]; read-out: Michaelis-Menten constant (Kt) for transport via ceNaCT, pH 7.5, 30 min): 88 ± 13 µM
- Affinity of rat NaCT for succinate lower than for citrate [4]: 6 fold
- IC50 [4]: 172 ± 24 µM
- Ki [4]: 98 ± 14 µM
- [^14C]Citrate uptake (cDNA-specific) [4]: 5.7 ± 0.2 Pmol/10^6 cells/min
- [^14C]Citrate uptake, % [4]: 5%
- Succinate uptake at physiological concentrations ([4]; medium with 135 μM citrate and 40 μM succinate): 0.005±0.001 nmol/10^6 cells/minute
- Uptake in rat NaCT cDNA-transfected cells vs vector alone [4]: about 7 fold
- IC50 [5]: 51 ± 9 µM
- % Control of cDNA-specific [^3H]succinate uptake [6]: 6%
- cDNA-specific [^3H] succinate uptake [6]: 4.6 ± 0.4 fmol/106 cells per min
- Uptake in drIndy cDNA-transfected cells vs vector alone ([6]; absence of Na+): 15 fold
- Uptake in drIndy cDNA-transfected cells vs vector alone [6, 8]: 20 fold
- Km ([6]; read-out: Michaelis-Menten constant (Km) for transport via drIndy, presence of Na+): 40 ± 4 µM
- Succinate uptake mediated by drIndy ([6]; pH 5): 52±2 fmol/10^6 cells per minute
- Succinate uptake mediated by drIndy ([6]; pH 8): 127±5 fmol/10^6 cells per minute
- Charge-to-substrate ratio [7]: 2
